# Data as given in PMC3854609, “Biosynthesis of Sandalwood Oil: Santalum album CYP76F Cytochromes P450 Produce Santalols and Bergamotol” (PLoS ONE, 2013).
# Residue numbers refer to the chain shown, from its start.
# Columns and labels:
# Experiment in all cases: GCMS product formation, yeast microsomes
# Format in all cases: biochemical
# [1] = molecular target: T1, SaCYP76F37v1 (Santalum album, UniProt V5RGC8); settings: NADPH 0.8 mM; potassium phosphate pH 7.5; 30°C; 20 min; with SaCPR; TLC-enriched substrate; read-out: apparent Km
# T1 construct: gene CYP76F37v1; full-length cDNA in pYEDP60, yeast BY4741 microsomes, co-expressed with S. album CPR2 (KC842188)
# [2] = molecular target: T2, SaCYP76F39v2 (Santalum album, UniProt V5RGD0); settings: substrate in mixture of santalenes and α-exo-bergamotene, 40 µM, NADPH 0.8 mM, pH 7.5, 30°C, 2 h, with SaCPR
# T2 construct: gene CYP76F39v2; full-length cDNA in pYEDP60, yeast BY4741 microsomes, co-expressed with S. album CPR2 (KC842188)
# T2 sequence (V5RGD0 1-509): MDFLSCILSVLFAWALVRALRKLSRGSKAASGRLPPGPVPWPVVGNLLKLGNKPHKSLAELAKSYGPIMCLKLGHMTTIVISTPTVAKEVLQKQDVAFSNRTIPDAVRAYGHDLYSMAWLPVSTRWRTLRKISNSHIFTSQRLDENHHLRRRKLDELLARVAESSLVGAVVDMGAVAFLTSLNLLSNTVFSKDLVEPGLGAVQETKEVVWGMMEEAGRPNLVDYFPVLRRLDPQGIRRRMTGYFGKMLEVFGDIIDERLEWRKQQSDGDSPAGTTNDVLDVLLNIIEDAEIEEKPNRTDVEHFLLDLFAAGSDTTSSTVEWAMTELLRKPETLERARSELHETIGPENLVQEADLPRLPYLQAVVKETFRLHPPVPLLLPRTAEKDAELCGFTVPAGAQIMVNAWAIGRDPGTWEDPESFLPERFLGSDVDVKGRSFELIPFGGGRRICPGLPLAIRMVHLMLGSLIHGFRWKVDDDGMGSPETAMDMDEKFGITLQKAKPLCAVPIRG
# [3] = molecular target: T3, SaCYP76F41 (Santalum album, UniProt V5RFE4); settings: substrate in mixture of santalenes and α-exo-bergamotene, 40 µM, NADPH 0.8 mM, pH 7.5, 30°C, 2 h, with SaCPR
# T3 construct: gene CYP76F41; full-length cDNA in pYEDP60, yeast BY4741 microsomes, co-expressed with S. album CPR2 (KC842188)
# T3 sequence (V5RFE4 1-509): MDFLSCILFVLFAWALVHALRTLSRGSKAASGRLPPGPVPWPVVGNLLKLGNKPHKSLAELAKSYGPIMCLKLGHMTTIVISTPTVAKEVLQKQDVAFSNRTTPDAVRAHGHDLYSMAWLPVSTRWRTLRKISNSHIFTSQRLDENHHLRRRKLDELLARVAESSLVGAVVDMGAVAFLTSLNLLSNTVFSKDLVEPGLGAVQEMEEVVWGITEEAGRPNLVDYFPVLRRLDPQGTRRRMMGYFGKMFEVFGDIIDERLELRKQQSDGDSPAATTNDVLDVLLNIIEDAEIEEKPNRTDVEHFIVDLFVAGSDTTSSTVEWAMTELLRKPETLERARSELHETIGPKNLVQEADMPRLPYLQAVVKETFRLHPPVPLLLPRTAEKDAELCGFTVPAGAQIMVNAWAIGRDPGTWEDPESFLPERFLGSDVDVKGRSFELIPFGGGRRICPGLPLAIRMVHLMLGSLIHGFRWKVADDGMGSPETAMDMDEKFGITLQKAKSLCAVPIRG
# [4] = molecular target: T4, SaCYP76F39v1 (Santalum album, UniProt V5RH69); settings: NADPH 0.8 mM; potassium phosphate pH 7.5; 30°C; 20 min; with SaCPR; TLC-enriched substrate; read-out: apparent Km
# T4 construct: gene CYP76F39v1; full-length cDNA in pYEDP60, yeast BY4741 microsomes, co-expressed with S. album CPR2 (KC842188)
# T4 sequence (V5RH69 1-509): T2 sequence (V5RGD0 1-509) with S9F, R21P, K22T, I103T, Y110H
# [5] = products (Z)- and (E)-β-santalol
# [6] = products (Z)- and (E)-α-santalol
# T1 sequence (V5RGC8 1-509): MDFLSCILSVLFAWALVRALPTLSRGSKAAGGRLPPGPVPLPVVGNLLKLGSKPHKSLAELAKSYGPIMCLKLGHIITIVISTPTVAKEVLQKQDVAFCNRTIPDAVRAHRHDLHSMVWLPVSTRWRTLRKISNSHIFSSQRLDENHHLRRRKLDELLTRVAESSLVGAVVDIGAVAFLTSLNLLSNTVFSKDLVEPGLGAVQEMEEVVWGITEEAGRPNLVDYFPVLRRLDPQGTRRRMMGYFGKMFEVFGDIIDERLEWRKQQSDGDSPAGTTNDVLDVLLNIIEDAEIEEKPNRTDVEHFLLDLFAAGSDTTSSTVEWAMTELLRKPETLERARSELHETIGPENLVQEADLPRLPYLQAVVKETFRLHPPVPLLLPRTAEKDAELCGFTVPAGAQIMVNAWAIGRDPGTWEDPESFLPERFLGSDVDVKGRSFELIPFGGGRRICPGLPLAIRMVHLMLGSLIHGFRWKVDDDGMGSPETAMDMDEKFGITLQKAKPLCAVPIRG
Km [1] [µM],Km [4] [µM],Structure (SMILES),"GCMS product formation, yeast microsomes [2, 5]","GCMS product formation, yeast microsomes [3, 5]","GCMS product formation, yeast microsomes [2, 6]","GCMS product formation, yeast microsomes [3, 6]"
157,34.8,"C=C1[C@@H]2CC[C@@H](C2)[C@@]1(C)CCC=C(C)C [compound 4, β-santalene]",gave product profiles similar to that observed with CYP76F39v1,gave product profiles similar to that observed with CYP76F39v1,,
,,"CC(C)=CCCC1(C)C2CC3C(C2)C31C (stereo not drawn) [compound 1, α-santalene]",,,gave product profiles similar to that observed with CYP76F39v1,gave product profiles similar to that observed with CYP76F39v1
